Experimental data published in patent US9359308B2, “Pyrazine kinase inhibitors” (Portola Pharmaceuticals, Inc., priority 2011, dated 2016).

Target: T1, full length active recombinant SYK enzyme (Homo sapiens, UniProt P43405)
T1 construct: full length active recombinant SYK enzyme (Millipore, Calif.); purchased Millipore
Test: Inhibition of Syk tyrosine phosphorylation activity (LANCE TR-FRET kinase assay)
Type: biochemical
Conditions: activity in the Syk assays, class symbols
Summary of the method: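 IC50 was derived by non-linear regression of TR-FRET signal (Eu-W1024-PY100 donor, streptavidin-APC acceptor) read 1 h after EDTA quench. The kinase step ran 1 h at room temperature with 1 nM full-length SYK, 550 nM biotinylated DEEDYESP substrate and 100 μM ATP in Tris pH 7.5/MgCl2/DTT at 3% final DMSO.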

Row | Structure (SMILES) | IC50
1 | NC(=O)c1ncc(N[C@@H]2CCCC[C@@H]2N)nc1Nc1cccnc1 [Example 417, 5-(((1R,2S)-2-aminocyclohexyl)amino)-3-(pyridin-3-ylamino)pyrazine-2-carboxamide] | < 1 nM
2 | CN(C)C(=O)c1cc(Nc2nc(N[C@@H]3CCCC[C@@H]3N)cnc2C(N)=O)sn1 [Example 248, 5-(6-((1R,2S)-2-aminocyclohexylamino)-3-carbamoylpyrazin-2-ylamino)-N,N-dimethylisothiazole-3-carboxamide] | 1 to 10 nM
3 | NC(=O)c1ncc(N[C@H](CC(F)F)C(N)=O)nc1Nc1cnc2cccnc2c1 [Example 127, (R)-3-((1,5-naphthyridin-3-yl)amino)-5-((1-amino-4,4-difluoro-1-oxobutan-2-yl)amino)pyrazine-2-carboxamide] | 1 to 10 nM
4 | NC(=O)c1ncc(N[C@@H]2CCNC2)nc1Nc1cnc2ccccc2c1 [Example 55, (R)-5-(pyrrolidin-3-ylamino)-3-(quinolin-3-ylamino)pyrazine-2-carboxamide] | 1 to 10 nM
5 | COc1cc(Nc2nc(N[C@H]3CCCC[C@@H]3N)cnc2C(N)=O)cc(OC)c1 [Example 93, 5-(((1S,2S)-2-aminocyclohexyl)amino)-3-((3,5-dimethoxyphenyl)amino)pyrazine-2-carboxamide] | 1 to 10 nM
6 | CC(C)[C@@H](Nc1cnc(C(N)=O)c(Nc2ccc3c(c2)OCO3)n1)C(N)=O [Example 146, (R)-5-(1-amino-3-methyl-1-oxobutan-2-ylamino)-3-(benzo[d][1,3]dioxol-5-ylamino)pyrazine-2-carboxamide] | 100 to 1000 nM
7 | CC(C)C[C@@H](Nc1cnc(C(N)=O)c(Nc2cncc(Cl)c2)n1)C(N)=O [Example 216, (R)-5-(1-amino-4-methyl-1-oxopentan-2-ylamino)-3-(5-chloropyridin-3-ylamino)pyrazine-2-carboxamide] | 1 to 10 nM
8 | CC[C@@H](Nc1cnc(C(N)=O)c(Nc2ccnc(F)c2)n1)C(N)=O [Example 264, (R)-5-(1-amino-1-oxobutan-2-ylamino)-3-(2-fluoropyridin-4-ylamino)pyrazine-2-carboxamide] | 10 to 100 nM
